In publication PMC10331583, “Control of fibrosis with enhanced safety via asymmetric inhibition of prolyl‐tRNA synthetase 1” (EMBO Molecular Medicine, 2023):
Values joined by “and” are separate entries in the source; they are usually repeats but may differ in a detail not shown here. Identical values can stand only once.

How the values were obtained:
[1] = target: T1, PARS1 WT (Homo sapiens, UniProt P07814); assay: Microscale thermophoresis (MST), PARS1 WT; format: binding; conditions: for Fraction bound: single replicates
T1 construct: His‐PARS1 (1001–1,512 aa); made in house; host or cells: Escherichia coli
T1 sequence (P07814 1001-1512 limits assumed): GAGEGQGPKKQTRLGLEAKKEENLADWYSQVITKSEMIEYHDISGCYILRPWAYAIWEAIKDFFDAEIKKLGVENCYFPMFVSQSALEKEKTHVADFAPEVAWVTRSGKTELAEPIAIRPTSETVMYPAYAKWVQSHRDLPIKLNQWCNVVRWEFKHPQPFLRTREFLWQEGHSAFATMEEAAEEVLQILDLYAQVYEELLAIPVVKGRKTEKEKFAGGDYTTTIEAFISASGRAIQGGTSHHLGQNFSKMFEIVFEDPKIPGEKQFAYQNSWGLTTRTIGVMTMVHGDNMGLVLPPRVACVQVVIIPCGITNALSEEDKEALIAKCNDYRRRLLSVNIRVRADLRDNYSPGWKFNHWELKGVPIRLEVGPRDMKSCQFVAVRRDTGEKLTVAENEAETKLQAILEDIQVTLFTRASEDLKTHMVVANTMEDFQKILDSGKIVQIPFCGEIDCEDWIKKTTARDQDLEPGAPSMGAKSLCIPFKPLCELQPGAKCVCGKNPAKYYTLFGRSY

[2] = system: WI‐26 VA4 cells stably expressing EV (empty vector); assay: Collagen ELISA in cells stably expressing EV

**Q.** With `O[C@H]1CCCN[C@@H]1CCCn1cnc2c(Cl)c(Cl)ccc21` [DWN12088] as the molecule, how does the “Fraction bound, average” value ([1]; Dose 30.5176 nM) read?
**A.** -0.2054

**Q.** What about the Fraction bound ([1]; Dose 30.5176 nM) of the same molecule?
**A.** -0.1847 and -0.2552 and -0.1762

**Q.** And the “Fraction bound, average” value ([1]; Dose 61.0352 nM)?
**A.** -0.1331

**Q.** What about the Fraction bound ([1]; Dose 61.0352 nM) of the same molecule?
**A.** -0.1271 and -0.1077 and -0.1644

**Q.** And the “Fraction bound, average” value ([1]; Dose 122.07 nM)?
**A.** -0.0578

**Q.** And the Fraction bound ([1]; Dose 122.07 nM)?
**A.** 0.0166 and -0.0399 and -0.1500

**Q.** And the “Fraction bound, average” value ([1]; Dose 244.141 nM)?
**A.** 0.0543

**Q.** What about the Fraction bound ([1]; Dose 244.141 nM) of the same molecule?
**A.** -0.0356 and 0.0851 and 0.1134

**Q.** And the “Fraction bound, average” value ([1]; Dose 488.281 nM)?
**A.** -0.0068

**Q.** What about the Fraction bound ([1]; Dose 488.281 nM) of the same molecule?
**A.** 0.0147 and -0.0499 and 0.0148

**Q.** And the “Fraction bound, average” value ([1]; Dose 976.562 nM)?
**A.** 0.1887

**Q.** And the Fraction bound ([1]; Dose 976.562 nM)?
**A.** 0.1745 and 0.1271 and 0.2645

**Q.** And the “Fraction bound, average” value ([1]; Dose 1953.12 nM)?
**A.** 0.3166

**Q.** And the Fraction bound ([1]; Dose 1953.12 nM)?
**A.** 0.2796 and 0.3408 and 0.3294

**Q.** What about the “Fraction bound, average” value ([1]; Dose 3906.25 nM) of the same molecule?
**A.** 0.1823

**Q.** What about the Fraction bound ([1]; Dose 3906.25 nM) of the same molecule?
**A.** 0.1409 and 0.1539 and 0.2519

**Q.** And the “Fraction bound, average” value ([1]; Dose 7812.5 nM)?
**A.** 0.3895

**Q.** And the Fraction bound ([1]; Dose 7812.5 nM)?
**A.** 0.3262 and 0.4199 and 0.4224

**Q.** And the “Fraction bound, average” value ([1]; Dose 15625 nM)?
**A.** 0.4633

**Q.** What about the Fraction bound ([1]; Dose 15625 nM) of the same molecule?
**A.** 0.4748 and 0.4733 and 0.4418

**Q.** And the “Fraction bound, average” value ([1]; Dose 31250 nM)?
**A.** 0.5523

**Q.** And the Fraction bound ([1]; Dose 31250 nM)?
**A.** 0.4690 and 0.5423 and 0.6454

**Q.** What about the “Fraction bound, average” value ([1]; Dose 62500 nM) of the same molecule?
**A.** 0.5522

**Q.** What about the Fraction bound ([1]; Dose 62500 nM) of the same molecule?
**A.** 0.5673 and 0.5892 and 0.5000

**Q.** And the “Fraction bound, average” value ([1]; Dose 125000 nM)?
**A.** 0.7606

**Q.** What about the Fraction bound ([1]; Dose 125000 nM) of the same molecule?
**A.** 0.7942 and 0.7665 and 0.7210

**Q.** And the “Fraction bound, average” value ([1]; Dose 250000 nM)?
**A.** 0.9107

**Q.** What about the Fraction bound ([1]; Dose 250000 nM) of the same molecule?
**A.** 0.9397 and 0.8612 and 0.9313

**Q.** What about the “Fraction bound, average” value ([1]; Dose 500000 nM) of the same molecule?
**A.** 1.0322

**Q.** What about the Fraction bound ([1]; Dose 500000 nM) of the same molecule?
**A.** 1.1218 and 1.1050 and 0.8698

**Q.** And the “Fraction bound, average” value ([1]; Dose 1000000 nM)?
**A.** 1.1170

**Q.** And the Fraction bound ([1]; Dose 1000000 nM)?
**A.** 1.1447 and 1.1049 and 1.1015

**Q.** What about the Kd ([1]; Kd (Fit Results), His-PARS1 WT, doses of the sheet in nM) of the same molecule?
**A.** 20500 nM

**Q.** And the Kd ([1]; Kd, MST, in the presence of ATP)?
**A.** 20000 nM

**Q.** And the Kd ([1]; Kd, MST, in the presence of proline 30 μM)?
**A.** 79000 nM

**Q.** And the Kd ([1]; Kd, MST, in the presence of proline 120 μM)?
**A.** 108000 nM

**Q.** What about the Kd ([1]; Kd, WT, 5 mM ATP, mean ± SD, unit inferred) of the same molecule?
**A.** 20500 ± 8580 nM

**Q.** What about the “CC50/collagen IC50” value ([2]; EV cells) of the same molecule?
**A.** 12.55

**Q.** What about the “Relative (CC50)/(collagen IC50)” value ([2]; EV cells (reference)) of the same molecule?
**A.** 1.00

**Q.** What about the IC50 ([2]; Homo sapiens, WI26VA4, read-out: IC50, collagen level) of the same molecule?
**A.** 1.91 µM

**Q.** And the “Collagen level, average” value ([2]; WI-26 VA4 EV, 30 nM, average of 4 experiments)?
**A.** 106.29 % of control

**Q.** And the “Collagen level, single replicates” value ([2]; WI-26 VA4 EV, 30 nM, replicates of Experiments #1-#4)?
**A.** 103.80 % of control and 93.68 % of control and 118.18 % of control and 101.32 % of control and 113.71 % of control and 100.49 % of control and 110.94 % of control and 125.36 % of control and 99.68 % of control and 91.65 % of control and 118.14 % of control and 98.48 % of control
